Measurements taken from ChEMBL document CHEMBL4334501, “A drug repurposing screening reveals a novel epigenetic activity of hydroxychloroquine” (Eur J Med Chem, 2019).
Activity calls are given as the source filed them. The rule behind the calls is not given here.

Columns and labels:
[1] = target: Polycomb protein EED (Homo sapiens) (UniProt O75530); experiment: Inhibition of HA-tagged human EED subunit of PRC2 complex expressed in human MM1S cells assessed as reduction in transfected EED cDNA vector-induced H3K27me3 overexpression at 10 uM after 24 hrs by Western blot analysis; assay type: cell-based
Sequence of Polycomb protein EED (Homo sapiens) (O75530 2-441 limits assumed): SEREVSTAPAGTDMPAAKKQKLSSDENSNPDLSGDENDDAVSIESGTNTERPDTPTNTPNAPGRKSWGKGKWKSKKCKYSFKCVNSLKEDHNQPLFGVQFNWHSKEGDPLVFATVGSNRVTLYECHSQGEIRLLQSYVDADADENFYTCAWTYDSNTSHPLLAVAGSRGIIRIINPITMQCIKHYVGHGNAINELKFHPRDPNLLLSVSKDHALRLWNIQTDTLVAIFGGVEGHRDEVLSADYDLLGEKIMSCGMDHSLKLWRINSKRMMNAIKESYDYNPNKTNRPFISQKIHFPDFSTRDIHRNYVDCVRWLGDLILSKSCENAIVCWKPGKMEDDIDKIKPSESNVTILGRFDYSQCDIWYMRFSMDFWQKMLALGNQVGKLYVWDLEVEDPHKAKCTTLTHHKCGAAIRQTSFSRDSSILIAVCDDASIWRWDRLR

[2] = target: Polycomb protein EED (Homo sapiens) (UniProt O75530); experiment: Inhibition of EED subunit of PRC2 complex in human MM1S cells assessed as reduction in H3K27me3 expression after 24 hrs by Western blot analysis; assay type: cell-based

CCN(CCO)CCCC(C)Nc1ccnc2cc(Cl)ccc12 (configuration not stated) was tested, and the inhibition [1] was “Active” and the inhibition [2] was “Dose-dependent effect”.
